Consider 22 molecules from patent US11192859B2, “Quinoline compounds as modulators of RAGE activity and uses thereof” (NEW YORK UNIVERSITY, priority 2016, dated 2021).

For one test, the target named is ctRAGE (Homo sapiens (Human), UniProt Q15109). Briefly: Fluorescence binding assay (native tryptophan fluorescence titration). More on the design: key to Fluorescent Binding Assay, Kd (nM): ***: No binding. The following applies: 10 nM ctRAGE, pH 7.0, 5% DMSO; for Kd: read-out: Fluorescent Binding Assay, Kd. As for the experimental part:
Native tryptophan fluorescence experiments were conducted using a Horiba Jobin Yvon Fluorolog spectrofluorometer. 1 mM of compound was dissolved in 10 mM phosphate buffer [pH 7.0] and 50% DMSO. ctRAGE was bacterially expressed and purified as described^1. 10 nM ctRAGE solution was individually titrated from 0.1 nM-100 μM with the compounds in 100 μL of 10 mM phosphate buffer [pH 7.0] and 5% DMSO. The excitation and emission wavelengths were 280 nm and 352 nm, respectively. Dissociation constants, Kd, were estimated from the changes in peak fluorescence intensities as a function of the free compound concentration by using Prism 5 software (GraphPad). Data were fit to the equation, (F−F0)/Fmax=[compound]/(Kd+[compound]) where F is the fluorescence intensity at a given compound concentration, F0 is the fluorescence intensity of the blank, and Fmax is the maximum fluorescence intensity.

Test [1] deals with Murine vascular smooth muscle cells (SMCs). Briefly: Smooth muscle cell migration assay (wounding assay), RAGE ligand CML-AGE. Type of test: cell-based. The arrangement: key to SMC migration Assay, IC50 (nM): ****: No inhibition or bad fit or inhibition out of range. The following applies: CML-AGE 10 μg/ml, 7 h; for IC50: Mus musculus, read-out: SMC migration Assay, IC50. Here is the method: FIG. 4 depicts effects of compounds on RAGE ligand-stimulated migration of murine aortic smooth muscle cells (SMCs). Migration of SMCs after incubation with the indicated RAGE inhibitor compounds or the parent molecule (“C12”) quinolone from the Chem-Bridge library was assessed. SMCs were grown to confluence and serum-starved overnight. The following morning, serum free media was removed and compounds were added (1 μM). Immediately following the addition of compounds, the monolayer was wounded using a p200 pipette tip and allowed to incubate for 1.5 h. Following this incubation, compounds were removed and fresh media containing RAGE ligand, CML-AGE (10 μg/ml), was added for 7 h. All images were measured at TO and T7 h and an area ingrowth of effective migrating cells was calculated. Each compound was tested in three independent wells and each well was photographed in 3 separate locations for a total of 9 images used in assessing area ingrowth. Error bars represent SEM. * indicates p<0.05 comparing CML-AGE vs. CML-AGE and compound treatment and # indicates p<0.001 comparing CML-AGE vs. serum free medium (SFM) vehicle. Note that SFM is the vehicle into which the RAGE ligand, CML-AGE, is added for testing the effect of RAGE ligand.
Murine vascular smooth muscle cells (SMCs) were cultured from the aortas of 10-week old male mice using a modification of the procedure of Travo and Barret^17. SMCs were cultured following an explant protocol in accordance with institutional guidelines. Wild-type murine aortic vascular SMCs were isolated and used between passages 8 to 12. Migration in response to the RAGE ligand CML-AGE (CML, 10 μg/ml) or a general effector, not a RAGE ligand, PDGF-BB, 10 ng/ml (R&D systems, Minneapolis, Minn., USA) was assessed with a wounding assay. Cells were grown to confluence in 12-well plates and starved overnight. The following morning, serum free media was removed and compounds were added. Immediately following the addition of compounds, the monolayer was wounded using a p200 pipette tip and the compounds were allowed to incubate for 1.5 h. Following this incubation, all compounds were removed and fresh media containing RAGE ligand or general effector, PDGF-BB, was added for 7 h. Cells were maintained at 37° C. and 5% CO2. Images were obtained at TO and T7. Each image was measured and an area ingrowth of effective migrating cells was calculated. The SMC migration assay data for representative compounds, Compounds 229 and 247, is depicted in FIGS. 5a and 5b, respectively.

Chain of ctRAGE (Q15109 364-404): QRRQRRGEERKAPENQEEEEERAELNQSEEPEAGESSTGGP

What is called Kd is a measure of binding affinity in units of concentration. On to `CCCNCc1cc(-c2ccc(NC(C)=O)cc2)nc2ccccc12` [Compound 235, N-(4-(4-((propylamino)methyl)quinolin-2-yl)phenyl)acetamide], for which the Kd at ctRAGE was 76 nM. The IC50 in test [1] was determined as 17 nM.

As to `CCCN(C)Cc1cc(-c2ccc(NC(C)=O)cc2)nc2ccccc12` [Compound 236, N-(4-(4-((methyl(propyl)amino)methyl)quinolin-2-yl)phenyl)acetamide], the equilibrium dissociation constant (Kd) at ctRAGE worked out at 56 nM. The IC50 in test [1] was found to be 0.1 nM.

Consider `CCCCNCc1cc(-c2ccc(NC(C)=O)cc2)nc2ccccc12` [Compound 237, N-(4-(4-((butylamino)methyl)quinolin-2-yl)phenyl)acetamide], for which the “Fluorescent Binding Assay, Kd (nM)” value at ctRAGE is given as “***”. The “SMC migration Assay, IC50 (nM)” value in test [1] was “****”.

On to `CCCCN(C)Cc1cc(-c2ccc(NC(C)=O)cc2)nc2ccccc12` [Compound 238, N-(4-(4-((butyl(methyl)amino)methyl)quinolin-2-yl)phenyl)acetamide], for which the equilibrium dissociation constant (Kd) on ctRAGE was 16 nM. Moreover, the IC50 in test [1] was determined as 0.08 nM.

With `CC(=O)Nc1ccc(-c2cc(CNCCN(C)C)c3ccccc3n2)cc1` [Compound 239, N-(4-(4-(((2-(dimethylamino)ethyl)amino)methyl)quinolin-2-yl)phenyl)acetamide], the Kd at ctRAGE was 13 nM. For the same molecule, in test [1], the “SMC migration Assay, IC50 (nM)” value is “****”.

Take `CC(=O)Nc1ccc(-c2cc(CN(C)CCN(C)C)c3ccccc3n2)cc1` [Compound 240, N-(4-(4-(((2-(dimethylamino)ethyl)(methyl)amino)methyl)quinolin-2-yl)phenyl)acetamide]: at ctRAGE, the “Fluorescent Binding Assay, Kd (nM)” value was “***”. In addition, the “SMC migration Assay, IC50 (nM)” value in test [1] is recorded as “****”.

Consider `CNCCNCc1cc(-c2ccc(NC(C)=O)cc2)nc2ccccc12` [Compound 241, N-(4-(4-(((2-(methylamino)ethyl)amino)methyl)quinolin-2-yl)phenyl)acetamide], for which the Kd at ctRAGE was found to be 11 nM. Moreover, the “SMC migration Assay, IC50 (nM)” value in test [1] is “****”.

Regarding `CNCCN(C)Cc1cc(-c2ccc(NC(C)=O)cc2)nc2ccccc12` [Compound 242, N-(4-(4-((methyl(2-(methylamino)ethyl)amino)methyl)quinolin-2-yl)phenyl)acetamide], the Kd at ctRAGE was found to be 8 nM. Also, the IC50 in test [1] came out at 44 nM.

In the case of `CC(=O)Nc1ccc(-c2cc(CCCN3CCOCC3)c3ccccc3n2)cc1` [Compound 243, N-(4-(4-(3-morpholinopropyl)quinolin-2-yl)phenyl)acetamide], the “Fluorescent Binding Assay, Kd (nM)” value on ctRAGE is reported as “***”. Also, the “SMC migration Assay, IC50 (nM)” value in test [1] is “****”.

For the molecule `CC(=O)Nc1ccc(-c2cc(CN3CCN(C(=O)OC(C)(C)C)CC3)c3ccccc3n2)cc1` [Compound 244, tert-butyl 4-((2-(4-acetamidophenyl)quinolin-4-yl)methyl)piperazine-1-carboxylate], at ctRAGE, the Kd was found to be 54 nM. The “SMC migration Assay, IC50 (nM)” value in test [1] is listed as “****”.

With `CC(=O)Nc1ccc(-c2cc(CN3CCN(C)CC3)c3ccccc3n2)cc1` [Compound 245, N-(4-(4-((4-methylpiperazin-1-yl)methyl)quinolin-2-yl)phenyl)acetamide], on ctRAGE, the “Fluorescent Binding Assay, Kd (nM)” value is “***”. Further, in test [1], the “SMC migration Assay, IC50 (nM)” value is recorded as “****”.

As to `CC(=O)Nc1ccc(-c2cc(CN3CCN(C(C)=O)CC3)c3ccccc3n2)cc1` [Compound 246, N-(4-(4-((4-acetylpiperazin-1-yl)methyl)quinolin-2-yl)phenyl)acetamide], the “Fluorescent Binding Assay, Kd (nM)” value on ctRAGE was “***”. Besides, in test [1], the “SMC migration Assay, IC50 (nM)” value is listed as “****”.

In the case of `CC(=O)Nc1ccc(-c2cc(CN3CCCCC3)c3ccccc3n2)cc1` [Compound 247, N-(4-(4-(piperidin-1-ylmethyl)quinolin-2-yl)phenyl)acetamide], on ctRAGE, the Kd was found to be 2 nM. Besides, the IC50 in test [1] came out at 1 nM.

As to `Cc1nc2ccc(-c3cc(CN4CCOCC4)c4ccccc4n3)cc2[nH]1` [Compound 248, 4-((2-(2-methyl-1H-benzo[d]imidazol-6-yl)quinolin-4-yl)methyl)morpholine], the “Fluorescent Binding Assay, Kd (nM)” value at ctRAGE was “***”. Further, the “SMC migration Assay, IC50 (nM)” value in test [1] is recorded as “****”.

As for `Cc1nc2ccc(-c3cc(CN4CCOCC4)c4ccccc4n3)cc2o1` [Compound 249, 2-methyl-6-(4-(morpholinomethyl)quinolin-2-yl)benzo[d]oxazole], the “Fluorescent Binding Assay, Kd (nM)” value at ctRAGE is “***”. In addition, the “SMC migration Assay, IC50 (nM)” value in test [1] is reported as “****”.

Take `CC(=O)Nc1ccc(-c2cc(CN3CCOCC3)c3ccc(F)cc3n2)cc1F` [Compound 250, N-(2-fluoro-4-(7-fluoro-4-(morpholinomethyl)quinolin-2-yl)phenyl)acetamide]: the Kd on ctRAGE was 81 nM. Besides, in test [1], the IC50 amounted to 40 nM.

As for `CC(=O)Nc1ccc(-c2cc(CN3CCOCC3)c3ccc(F)cc3n2)cc1Cl` [Compound 251, N-(2-chloro-4-(7-fluoro-4-(morpholinomethyl)quinolin-2-yl)phenyl)acetamide], the Kd on ctRAGE was found to be 168 nM. Further, in test [1], the “SMC migration Assay, IC50 (nM)” value is recorded as “****”.

For `CC(=O)Nc1ccc(-c2cc(CN3CCOCC3)c3ccc(F)cc3n2)cc1C#N` [Compound 252, N-(2-cyano-4-(7-fluoro-4-(morpholinomethyl)quinolin-2-yl)phenyl)acetamide], the Kd on ctRAGE was determined as 29 nM. For the same molecule, the IC50 in test [1] was 61 nM.

On to `CC(=O)Nc1ccc(-c2cc(CN3CCOCC3)c3ccc(Cl)cc3n2)cc1F` [Compound 253, N-(4-(7-chloro-4-(morpholinomethyl)quinolin-2-yl)-2-fluorophenyl)acetamide], for which the Kd at ctRAGE was 1300 nM. Besides, the IC50 in test [1] turned out to be 1200 nM.

On to `CC(=O)Nc1ccc(-c2cc(CN3CCOCC3)c3ccc(Cl)cc3n2)cc1Cl` [Compound 254, N-(2-chloro-4-(7-chloro-4-(morpholinomethyl)quinolin-2-yl)phenyl)acetamide], for which the Kd on ctRAGE was 1340 nM. In addition, the IC50 in test [1] stood at 2000 nM.

Take `CC(=O)Nc1ccc(-c2cc(CN3CCOCC3)c3ccc(Cl)cc3n2)cc1C#N` [Compound 255, N-(4-(7-chloro-4-(morpholinomethyl)quinolin-2-yl)-2-cyanophenyl)acetamide]: the dissociation constant (Kd) on ctRAGE was determined as 137 nM. Besides, in test [1], the “SMC migration Assay, IC50 (nM)” value is given as “****”.

For the molecule `COc1ccc2c(CN3CCOCC3)cc(-c3ccc(NC(C)=O)c(F)c3)nc2c1` [Compound 256, N-(2-fluoro-4-(7-methoxy-4-(morpholinomethyl)quinolin-2-yl)phenyl)acetamide], the Kd on ctRAGE is 5800 nM. Besides, in test [1], the “SMC migration Assay, IC50 (nM)” value is on record as “****”.
